Data taken from PubChem BioAssay (NCI).
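Five compound concentrations were applied to cells in 96-well plates for 48 hours; endpoints were derived by simple linear interpolation of the resulting dose-response curve. GI50 marks 50% less growth. TGI: total growth inhibition.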

Experiments:
Experiment in all cases: growth of human tumour cells (NCI), 48 h
UACC-257 melanoma = system: UACC-257 melanoma
SK-MEL-5 melanoma = system: SK-MEL-5 melanoma
LOX IMVI melanoma = system: LOX IMVI melanoma
K-562 leukemia = system: K-562 leukemia
OVCAR-3 ovarian = system: OVCAR-3 ovarian
SNB-19 CNS = system: SNB-19 CNS
SW-620 colon = system: SW-620 colon
OVCAR-5 ovarian = system: OVCAR-5 ovarian
BT-549 breast = system: BT-549 breast
A498 renal = system: A498 renal

Compound | GI50 (UACC-257 melanoma) | TGI (UACC-257 melanoma) | GI50 (SK-MEL-5 melanoma) | TGI (SK-MEL-5 melanoma) | GI50 (LOX IMVI melanoma) | TGI (LOX IMVI melanoma) | GI50 (K-562 leukemia) | TGI (K-562 leukemia) | GI50 (OVCAR-3 ovarian) | TGI (OVCAR-3 ovarian) | GI50 (SNB-19 CNS) | TGI (SNB-19 CNS) | GI50 (SW-620 colon) | TGI (SW-620 colon) | GI50 (OVCAR-5 ovarian) | TGI (OVCAR-5 ovarian) | GI50 (BT-549 breast) | TGI (BT-549 breast) | TGI (A498 renal)
Cn1c(-c2c(N)n(Cc3ccc(F)cc3)c3nc(C#N)c(C#N)nc23)nc2ccccc21 | 4.51 µM | > 50 µM | 2.97 µM | > 50 µM | 0.739 µM | 2.18 µM | 5.19 µM | > 50 µM | 0.842 µM | 2.6 µM | 12 µM | > 50 µM | 2.47 µM | 21 µM | 8.55 µM | > 50 µM | 2.79 µM | 18.2 µM | 
Cc1c2c(nn1-c1ccc(S(=O)(=O)NC(=S)NC(=O)c3ccccc3)cc1)-c1ccccc1CC2 | 10.7 µM | 47.4 µM | 30.7 µM | 96.5 µM | 50.3 µM | > 100 µM | 6.09 µM | > 100 µM | 13.7 µM | 41.4 µM | 96.4 µM | > 100 µM | > 100 µM | > 100 µM | > 100 µM | > 100 µM |  |  | 
O=C(CSSCC(=O)Nc1ccc(Br)cc1)Nc1ccc(Br)cc1 |  | 37.6 µM |  | 45.8 µM |  | 26.3 µM |  | > 100 µM |  | 32.1 µM |  | 29.4 µM |  | 29.4 µM |  | 41.7 µM |  |  | 34.1 µM
CN(C)CCNC(=O)c1ccc2oc3cc4ccccc4c(=O)n3c2c1 | 23.9 µM | 58 µM | 22.6 µM | 43.6 µM | 42.2 µM | > 100 µM | 64.1 µM | > 100 µM | 15.4 µM | 52.6 µM | 40.9 µM | > 100 µM | 28.6 µM | > 100 µM |  |  | 27.4 µM | 66.2 µM | 
O=[N+]([O-])C=C1c2ccccc2-c2ccccc21 |  | 33.7 µM |  |  |  | 30.9 µM |  | 6.34 µM |  | 28.4 µM |  | 51.8 µM |  | 31.2 µM |  | 31.4 µM |  |  | 34.6 µM
CN(/N=C\c1ccnc2ccccc12)c1ccccc1 |  | 42.6 µM |  | 31.2 µM |  | 32.3 µM |  | 51.4 µM |  | 44.2 µM |  | > 100 µM |  | 51.4 µM |  | 45.6 µM |  |  | 54.6 µM
O=C(CC1(O)C(=O)Nc2c(Cl)cc(Cl)cc21)c1ccc(F)cc1 (configuration not stated) |  | 65 µM |  |  |  | 66.5 µM |  |  |  | 68.6 µM |  | > 100 µM |  | > 100 µM |  | > 100 µM |  |  | 
CC(C)=NNC(=S)NC12CC3CC(CC(C3)C1)C2 |  | > 100 µM |  | > 100 µM |  | > 100 µM |  | > 100 µM |  | > 100 µM |  | > 100 µM |  | > 100 µM |  | > 100 µM |  |  | > 100 µM
c1ccc2c(CNCCCCCCCCNCc3cccc4ccccc34)cccc2c1 |  | 3.29 µM |  | 3.32 µM |  | 2.52 µM |  | 3.73 µM |  | 22.5 µM |  |  |  | 3.29 µM |  | 4.14 µM |  |  | 28.4 µM
Cc1ccc(Sc2ccccc2N)cc1 |  | > 100 µM |  | 45.5 µM |  | > 100 µM |  | > 100 µM |  | > 100 µM |  | > 100 µM |  | > 100 µM |  | > 100 µM |  |  | > 100 µM
N#CCc1nnc(N)o1 |  | > 100 µM |  |  |  | > 100 µM |  | > 100 µM |  | > 100 µM |  | > 100 µM |  | > 100 µM |  |  |  |  | 
COc1cc(CCC(=O)NC[C@@H](O)c2ccccc2)ccc1O | > 100 µM | > 100 µM | > 100 µM | > 100 µM | > 100 µM | > 100 µM | 56.8 µM | > 100 µM | > 100 µM | > 100 µM |  |  | > 100 µM | > 100 µM | > 100 µM | > 100 µM | > 100 µM | > 100 µM | 
O=C1CC(N2C(=O)/C(=C/C(Cl)=C\c3ccc([N+](=O)[O-])cc3)SC2=S)C(=O)N1c1ccc(O)cc1 (configuration not stated) | 2.48 µM | 9.12 µM | 1.92 µM | 3.66 µM |  |  | 0.603 µM | 9.55 µM | 0.604 µM | 1.96 µM | 1.34 µM | 3.47 µM | 0.684 µM | 2.28 µM | 1.91 µM | 3.69 µM | 2.03 µM | 4.21 µM | 
COC12OCCN(C)C1=CC(=O)C1(C)N=NCC12 (configuration not stated) |  | > 100 µM |  | > 100 µM |  | > 100 µM |  | > 100 µM |  | > 100 µM |  |  |  | > 100 µM |  |  |  |  | > 100 µM
CCOC(=O)C1SC(=Nc2ccc(Cl)cc2Cl)N=C1C (configuration not stated) |  | > 100 µM |  | > 100 µM |  | > 100 µM |  | > 100 µM |  | > 100 µM |  | > 100 µM |  | > 100 µM |  | > 100 µM |  |  | > 100 µM
